pKi: −log10 of the molar value.
Key:
Test in all cases: Serine Protease Inhibition Assay
Details in all cases: pH 7.8; 22 °C
[1] = target: Vitamin K-dependent protein C (Homo sapiens, UniProt P04070)
Method: (§1) The enzyme reactions were initiated by the addition of substrate, and the color developed from the release of p-nitroanilide from each chromogenic substrate was monitored continuously for 5 min at 405 nm on a microtiter plate reader. […] The apparent Ki values were then calculated according to the Cheng-Prusoff equation: Ki = IC50/1 + [S]/Km.

[2] = target: Urokinase-type plasminogen activator (Homo sapiens, UniProt P00749)
Method: as §1

Plasma kallikrein = Plasma kallikrein (Homo sapiens, UniProt P03952)
Method: as §1

Prothrombin = Prothrombin (Homo sapiens, UniProt P00734)
Method: as §1

Plasminogen = Plasminogen (Homo sapiens, UniProt P00747)
Method: as §1

[3] = target: Tissue-type plasminogen activator (Homo sapiens, UniProt P00750)
Method: as §1

Coagulation factor X = Coagulation factor X (Homo sapiens, UniProt P00742)
Method: as §1

Serine protease 1 = target: T1, Serine protease 1 (Bos taurus, UniProt P00760)
T1 sequence (P00760 whole entry): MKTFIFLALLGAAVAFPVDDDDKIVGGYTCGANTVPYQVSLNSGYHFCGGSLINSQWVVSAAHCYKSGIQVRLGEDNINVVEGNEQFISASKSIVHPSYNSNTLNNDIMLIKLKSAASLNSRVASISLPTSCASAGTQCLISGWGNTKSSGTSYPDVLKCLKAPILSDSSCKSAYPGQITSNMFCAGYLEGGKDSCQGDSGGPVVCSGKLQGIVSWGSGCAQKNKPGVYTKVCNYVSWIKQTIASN
Method: as §1

Chain of Coagulation factor X (P00742 41-179 limits assumed): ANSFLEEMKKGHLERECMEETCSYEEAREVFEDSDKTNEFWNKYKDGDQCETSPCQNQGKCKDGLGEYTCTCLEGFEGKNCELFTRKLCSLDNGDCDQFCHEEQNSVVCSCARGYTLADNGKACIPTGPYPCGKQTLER
Chain of Coagulation factor X (P00742 235-488 limits assumed): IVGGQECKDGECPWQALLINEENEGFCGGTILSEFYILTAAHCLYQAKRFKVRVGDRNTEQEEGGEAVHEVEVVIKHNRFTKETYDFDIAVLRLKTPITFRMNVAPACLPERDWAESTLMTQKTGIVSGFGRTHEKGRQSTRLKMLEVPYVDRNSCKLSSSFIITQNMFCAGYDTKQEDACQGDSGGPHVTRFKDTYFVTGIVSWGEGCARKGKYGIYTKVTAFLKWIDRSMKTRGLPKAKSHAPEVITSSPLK
Chain of Plasma kallikrein (P03952 20-390 limits assumed): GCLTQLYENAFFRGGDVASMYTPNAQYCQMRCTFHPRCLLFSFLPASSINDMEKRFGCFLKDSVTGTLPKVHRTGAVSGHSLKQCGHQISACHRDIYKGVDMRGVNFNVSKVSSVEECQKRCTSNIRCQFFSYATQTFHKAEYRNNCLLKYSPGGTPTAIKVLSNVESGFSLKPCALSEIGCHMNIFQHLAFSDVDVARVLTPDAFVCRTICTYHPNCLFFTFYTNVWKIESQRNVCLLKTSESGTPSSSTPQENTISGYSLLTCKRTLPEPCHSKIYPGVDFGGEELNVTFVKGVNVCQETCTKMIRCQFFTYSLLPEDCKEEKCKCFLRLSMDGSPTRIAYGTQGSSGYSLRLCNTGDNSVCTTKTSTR
Chain of Plasma kallikrein (P03952 391-638 limits assumed): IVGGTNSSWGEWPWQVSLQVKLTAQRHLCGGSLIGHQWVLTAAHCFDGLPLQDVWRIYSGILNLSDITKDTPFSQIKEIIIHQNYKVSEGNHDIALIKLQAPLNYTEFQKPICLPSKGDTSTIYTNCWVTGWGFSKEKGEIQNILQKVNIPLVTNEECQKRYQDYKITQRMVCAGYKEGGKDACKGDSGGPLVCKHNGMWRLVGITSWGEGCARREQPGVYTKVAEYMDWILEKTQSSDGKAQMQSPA
Chain of Vitamin K-dependent protein C (P04070 43-197 limits assumed): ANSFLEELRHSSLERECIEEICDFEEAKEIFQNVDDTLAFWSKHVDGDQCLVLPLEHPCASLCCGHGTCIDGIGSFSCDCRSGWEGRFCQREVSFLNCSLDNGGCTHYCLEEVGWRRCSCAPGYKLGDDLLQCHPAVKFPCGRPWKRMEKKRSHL
Chain of Vitamin K-dependent protein C (P04070 212-461 limits assumed): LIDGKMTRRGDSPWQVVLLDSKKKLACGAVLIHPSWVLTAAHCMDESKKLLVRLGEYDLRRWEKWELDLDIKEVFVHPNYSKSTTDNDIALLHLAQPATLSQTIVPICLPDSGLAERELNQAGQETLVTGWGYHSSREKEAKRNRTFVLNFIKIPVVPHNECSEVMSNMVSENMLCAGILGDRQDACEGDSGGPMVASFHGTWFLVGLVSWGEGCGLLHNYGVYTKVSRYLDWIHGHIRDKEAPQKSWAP
Chain of Tissue-type plasminogen activator (P00750 whole entry): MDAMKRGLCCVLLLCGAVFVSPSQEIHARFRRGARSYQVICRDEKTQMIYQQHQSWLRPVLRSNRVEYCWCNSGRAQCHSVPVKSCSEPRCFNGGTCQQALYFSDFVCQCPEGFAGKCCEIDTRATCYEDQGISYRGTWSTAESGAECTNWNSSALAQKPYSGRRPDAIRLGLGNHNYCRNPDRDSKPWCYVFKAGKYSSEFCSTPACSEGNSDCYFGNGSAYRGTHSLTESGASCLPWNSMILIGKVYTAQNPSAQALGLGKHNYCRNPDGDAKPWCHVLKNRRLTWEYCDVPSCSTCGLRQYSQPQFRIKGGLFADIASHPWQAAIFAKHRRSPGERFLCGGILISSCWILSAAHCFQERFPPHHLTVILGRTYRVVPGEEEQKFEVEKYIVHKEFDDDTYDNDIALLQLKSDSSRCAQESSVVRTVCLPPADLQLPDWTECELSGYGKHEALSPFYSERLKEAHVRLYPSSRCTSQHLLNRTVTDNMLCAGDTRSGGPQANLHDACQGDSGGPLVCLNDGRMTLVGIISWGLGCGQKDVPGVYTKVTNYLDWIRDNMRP
Chain of Plasminogen (P00747 97-580 limits assumed): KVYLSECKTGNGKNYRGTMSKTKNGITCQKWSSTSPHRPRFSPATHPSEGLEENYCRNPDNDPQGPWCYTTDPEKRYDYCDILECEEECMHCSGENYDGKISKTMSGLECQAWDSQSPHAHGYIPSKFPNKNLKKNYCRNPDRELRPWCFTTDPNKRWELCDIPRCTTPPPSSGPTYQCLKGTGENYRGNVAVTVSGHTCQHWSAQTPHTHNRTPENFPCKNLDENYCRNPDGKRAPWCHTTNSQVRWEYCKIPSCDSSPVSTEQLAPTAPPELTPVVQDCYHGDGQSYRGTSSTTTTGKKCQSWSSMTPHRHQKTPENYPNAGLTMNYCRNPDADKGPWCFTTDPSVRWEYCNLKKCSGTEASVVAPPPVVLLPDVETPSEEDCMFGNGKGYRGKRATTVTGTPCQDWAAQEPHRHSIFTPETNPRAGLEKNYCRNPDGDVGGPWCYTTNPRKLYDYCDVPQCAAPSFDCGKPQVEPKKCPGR
Chain of Plasminogen (P00747 581-810 limits assumed): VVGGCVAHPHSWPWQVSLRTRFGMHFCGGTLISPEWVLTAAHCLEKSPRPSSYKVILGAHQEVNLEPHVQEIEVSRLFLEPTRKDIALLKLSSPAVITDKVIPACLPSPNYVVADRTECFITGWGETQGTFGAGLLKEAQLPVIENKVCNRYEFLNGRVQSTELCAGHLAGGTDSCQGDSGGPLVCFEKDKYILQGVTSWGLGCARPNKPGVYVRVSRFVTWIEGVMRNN

pKi [1]: 7.06
pKi [2]: < 5.47
pKi (Plasma kallikrein): 6.94
pKi (Prothrombin): 5.44
pKi (Plasminogen): 5.92
pKi [3]: < 5.41
pKi (Coagulation factor X): < 5.46
pKi (Serine protease 1): 5.40
SMILES: CCOc1cc(OCC)c(F)c([C@@H](Nc2ccc(C(=N)N)c(O)c2)C(=O)NS(=O)(=O)c2cccc(N)c2)c1 [(2R)-N-[(3-aminobenzene)sulfonyl]-2-[(4-carbamimidoyl-3-hydroxyphenyl)amino]-2-(3,5-diethoxy-2-fluorophenyl)acetamide]

— BindingDB's records for doi:10.1074/jbc.M409068200 (Genentech, 2005)
